Square brackets hold non-standard residues; d marks the D form. Peptide text beside a SMILES is read from it. * marks the point of attachment. ξ: configuration not given here. Dansyl = CN(C)c1cccc2c(S(=O)(=O)*)cccc12; ξL = CC(C)CC(N)C(=O)O
Each compound was assayed on receptor labeled by the radioiodinated analogue of 1 (4, [125I]-YLFQPQRF-NH2); neuropeptide FF receptor (assay: Competitive radioligand binding against 4 ([125I]Y8F-amide)). Conditions: mixture-based positional scanning; difference from averaged radioligand displacement of whole library (0); about 80 a.u. = 10-fold change in Ki.
Description: Additionally, three-dimensional (3-D) molecular models of the known smaller-size neuropeptide FF antagonists 3 and 3a were constructed and their low-energy conformations were obtained in the AMBER force-field [Weiner, et al., J. Comput. Chem. 1986, 7, […].] by molecular dynamics calculations involving simulated annealing. A semi-empirical quantum chemical method with the PM3 parameterization [Stewart, J. Comput. Chem. 1989, 10, 209-220.] was used for the final geometry optimization. […] At least one of the rings in domain B is aromatic. No similarity between 3 and 3a outside these domains were apparent; therefore, the simultaneous presence of A and B domains in the structure of neuropeptide FF (1) antagonists is critical to the invention. Apparently, structural subunits (domain C) outside domains A and B should function in a cooperative manner in directing the pharmacophores into proper geometric positions when improved binding to the cognate receptor is to be obtained, which is associated with the improvement of the desired pharmacological effect. An approach involving mixture-based synthetic combinatorial libraries and positional scanning [(a) Houghten, et al., J. Med Chem. 1999, 42, 3743-3778.] was adopted in the search for preferred structural motifs in domain C that assist in achieving this objective in this invention. To allow for the use of 3 as a reference in this process, the guadinino group (A) was incorporated as part of an L-2-amino-5-{[amino(imino)methyl]amino}pentanoyl (arginyl, R, Arg) residue and 5-dimethylamino-1-naphthalenesulphonyl (dansyl) was chosen to form B (However, it must be emphasized that both R and dansyl are replaceable with moieties that bestow A and B domain attributes described in the invention).
Upon screening for residues to replace the glutamine of 3, serine (S) was the only building block in this position that increased the displacement of 4 in the radioligand-binding assay. Therefore, motifs present in dansyl-Gly-Ser-Arg-NH2, dansyl-Gly-Gln-Arg-NH2, dansyl-Gln-Ser-Arg-NH2, and dansyl-Gln-Gln-Arg-NH2 were chosen based on their affinity to the cognate receptor for further consideration as primary templates when designing the domain C of the compounds described in the invention herein. […]

Structure (SMILES)	Relative Binding Index (RBI)
CC(C)[C@H](NC(=O)[C@H](CC(=O)O)NS(=O)(=O)c1cccc2c(N(C)C)cccc12)C(=O)N[C@@H](CCCNC(=N)N)C(N)=O [Dansyl-DVR-amide] (Dansyl-Asp-Val-Arg-NH2)	−10 a.u.
CN(C)c1cccc2c(S(=O)(=O)N[C@@H](CC(=O)O)C(=O)N[C@@H](Cc3c[nH]c4ccccc34)C(=O)N[C@@H](CCCNC(=N)N)C(N)=O)cccc12 [Dansyl-DWR-amide] (Dansyl-Asp-Trp-Arg-NH2)	3 a.u.
CN(C)c1cccc2c(S(=O)(=O)N[C@@H](CC(=O)O)C(=O)N[C@@H](Cc3ccc(O)cc3)C(=O)N[C@@H](CCCNC(=N)N)C(N)=O)cccc12 [Dansyl-DYR-amide] (Dansyl-Asp-Tyr-Arg-NH2)	−7 a.u.
C[C@H](NC(=O)[C@H](CCC(=O)O)NS(=O)(=O)c1cccc2c(N(C)C)cccc12)C(=O)N[C@@H](CCCNC(=N)N)C(N)=O [Dansyl-EAR-amide] (Dansyl-Glu-Ala-Arg-NH2)	−32 a.u.
CN(C)c1cccc2c(S(=O)(=O)N[C@@H](CCC(=O)O)C(=O)N[C@@H](CCC(=O)O)C(=O)N[C@@H](CCCNC(=N)N)C(N)=O)cccc12 [Dansyl-EER-amide] (Dansyl-Glu-Glu-Arg-NH2)	17 a.u.
CN(C)c1cccc2c(S(=O)(=O)N[C@@H](CCC(=O)O)C(=O)N[C@@H](Cc3ccccc3)C(=O)N[C@@H](CCCNC(=N)N)C(N)=O)cccc12 [Dansyl-EFR-amide] (Dansyl-Glu-Phe-Arg-NH2)	15 a.u.
CN(C)c1cccc2c(S(=O)(=O)N[C@@H](CCC(=O)O)C(=O)N[C@@H](Cc3cnc[nH]3)C(=O)N[C@@H](CCCNC(=N)N)C(N)=O)cccc12 [Dansyl-EHR-amide] (Dansyl-Glu-His-Arg-NH2)	11 a.u.
CN(C)c1cccc2c(S(=O)(=O)N[C@@H](CCC(=O)O)C(=O)N[C@@H](CCCCN)C(=O)N[C@@H](CCCNC(=N)N)C(N)=O)cccc12 [Dansyl-EKR-amide] (Dansyl-Glu-Lys-Arg-NH2)	14 a.u.
CN(C)c1cccc2c(S(=O)(=O)N[C@@H](CCC(=O)O)C(=O)N[C@@H](CO)C(=O)N[C@@H](CCCNC(=N)N)C(N)=O)cccc12 [Dansyl-ESR-amide] (Dansyl-Glu-Ser-Arg-NH2)	37 a.u.
CC(C)[C@H](NC(=O)[C@H](CCC(=O)O)NS(=O)(=O)c1cccc2c(N(C)C)cccc12)C(=O)N[C@@H](CCCNC(=N)N)C(N)=O [Dansyl-EVR-amide] (Dansyl-Glu-Val-Arg-NH2)	12 a.u.
CN(C)c1cccc2c(S(=O)(=O)N[C@@H](CCC(=O)O)C(=O)N[C@@H](Cc3ccc(O)cc3)C(=O)N[C@@H](CCCNC(=N)N)C(N)=O)cccc12 [Dansyl-EYR-amide] (Dansyl-Glu-Tyr-Arg-NH2)	15 a.u.
C[C@H](NC(=O)[C@H](Cc1ccccc1)NS(=O)(=O)c1cccc2c(N(C)C)cccc12)C(=O)N[C@@H](CCCNC(=N)N)C(N)=O [Dansyl-FAR-amide] (Dansyl-Phe-Ala-Arg-NH2)	−40 a.u.
CN(C)c1cccc2c(S(=O)(=O)N[C@@H](Cc3ccccc3)C(=O)N[C@@H](CCC(=O)O)C(=O)N[C@@H](CCCNC(=N)N)C(N)=O)cccc12 [Dansyl-FER-amide] (Dansyl-Phe-Glu-Arg-NH2)	9 a.u.
CCC(C)C(NC(=O)C(Cc1ccccc1)NS(=O)(=O)c1cccc2c(N(C)C)cccc12)C(=O)NC(CCCNC(=N)N)C(N)=O (stereo not drawn) [Dansyl-FIR-amide] (Dansyl-Phe-Ile-Arg-NH2; configuration not given here)	16 a.u.
CN(C)c1cccc2c(S(=O)(=O)N[C@@H](Cc3ccccc3)C(=O)N[C@@H](CCCCN)C(=O)N[C@@H](CCCNC(=N)N)C(N)=O)cccc12 [Dansyl-FKR-amide] (Dansyl-Phe-Lys-Arg-NH2)	7 a.u.
CC(C)CC(NC(=O)[C@H](Cc1ccccc1)NS(=O)(=O)c1cccc2c(N(C)C)cccc12)C(=O)N[C@@H](CCCNC(=N)N)C(N)=O (stereo partly shown) [Dansyl-FLR-amide] (Dansyl-Phe-[ξL]-Arg-NH2)	1 a.u.

Next, values leading:

Relative Binding Index (RBI)	Structure (SMILES)
−1 a.u.	CN(C)c1cccc2c(S(=O)(=O)N[C@@H](CCC(=O)O)C(=O)N[C@@H](CC(=O)O)C(=O)N[C@@H](CCCNC(=N)N)C(N)=O)cccc12 [Dansyl-EDR-amide] (Dansyl-Glu-Asp-Arg-NH2)
22 a.u.	CN(C)c1cccc2c(S(=O)(=O)N[C@@H](CCC(=O)O)C(=O)NCC(=O)N[C@@H](CCCNC(=N)N)C(N)=O)cccc12 [Dansyl-EGR-amide] (Dansyl-Glu-Gly-Arg-NH2)
23 a.u.	CC[C@H](C)[C@H](NC(=O)[C@H](CCC(=O)O)NS(=O)(=O)c1cccc2c(N(C)C)cccc12)C(=O)N[C@@H](CCCNC(=N)N)C(N)=O [Dansyl-EIR-amide] (Dansyl-Glu-Ile-Arg-NH2)
8 a.u.	CC(C)C[C@H](NC(=O)[C@H](CCC(=O)O)NS(=O)(=O)c1cccc2c(N(C)C)cccc12)C(=O)N[C@@H](CCCNC(=N)N)C(N)=O [Dansyl-ELR-amide] (Dansyl-Glu-Leu-Arg-NH2)
17 a.u.	CSCC[C@H](NC(=O)[C@H](CCC(=O)O)NS(=O)(=O)c1cccc2c(N(C)C)cccc12)C(=O)N[C@@H](CCCNC(=N)N)C(N)=O [Dansyl-EMR-amide] (Dansyl-Glu-Met-Arg-NH2)
18 a.u.	CN(C)c1cccc2c(S(=O)(=O)N[C@@H](CCC(=O)O)C(=O)N[C@@H](CC(N)=O)C(=O)N[C@@H](CCCNC(=N)N)C(N)=O)cccc12 [Dansyl-ENR-amide] (Dansyl-Glu-Asn-Arg-NH2)
20 a.u.	CN(C)c1cccc2c(S(=O)(=O)N[C@@H](CCC(=O)O)C(=O)N3CCC[C@H]3C(=O)N[C@@H](CCCNC(=N)N)C(N)=O)cccc12 [Dansyl-EPR-amide] (Dansyl-Glu-Pro-Arg-NH2)
30 a.u.	CN(C)c1cccc2c(S(=O)(=O)N[C@@H](CCC(=O)O)C(=O)N[C@@H](CCC(N)=O)C(=O)N[C@@H](CCCNC(=N)N)C(N)=O)cccc12 [Dansyl-EQR-amide] (Dansyl-Glu-Gln-Arg-NH2)
15 a.u.	CN(C)c1cccc2c(S(=O)(=O)N[C@@H](CCC(=O)O)C(=O)N[C@@H](CCCNC(=N)N)C(=O)N[C@@H](CCCNC(=N)N)C(N)=O)cccc12 [Dansyl-ERR-amide] (Dansyl-Glu-Arg-Arg-NH2)
22 a.u.	CC(O)C(NC(=O)C(CCC(=O)O)NS(=O)(=O)c1cccc2c(N(C)C)cccc12)C(=O)NC(CCCNC(=N)N)C(N)=O (stereo not drawn) [Dansyl-ETR-amide] (Dansyl-Glu-Thr-Arg-NH2; configuration not given here)
25 a.u.	CN(C)c1cccc2c(S(=O)(=O)N[C@@H](CCC(=O)O)C(=O)N[C@@H](Cc3c[nH]c4ccccc34)C(=O)N[C@@H](CCCNC(=N)N)C(N)=O)cccc12 [Dansyl-EWR-amide] (Dansyl-Glu-Trp-Arg-NH2)
−9 a.u.	CN(C)c1cccc2c(S(=O)(=O)N[C@@H](Cc3ccccc3)C(=O)N[C@@H](CC(=O)O)C(=O)N[C@@H](CCCNC(=N)N)C(N)=O)cccc12 [Dansyl-FDR-amide] (Dansyl-Phe-Asp-Arg-NH2)
8 a.u.	CN(C)c1cccc2c(S(=O)(=O)N[C@@H](Cc3ccccc3)C(=O)N[C@@H](Cc3ccccc3)C(=O)N[C@@H](CCCNC(=N)N)C(N)=O)cccc12 [Dansyl-FFR-amide] (Dansyl-Phe-Phe-Arg-NH2)
15 a.u.	CN(C)c1cccc2c(S(=O)(=O)N[C@@H](Cc3ccccc3)C(=O)NCC(=O)N[C@@H](CCCNC(=N)N)C(N)=O)cccc12 [Dansyl-FGR-amide] (Dansyl-Phe-Gly-Arg-NH2)
4 a.u.	CN(C)c1cccc2c(S(=O)(=O)N[C@@H](Cc3ccccc3)C(=O)N[C@@H](Cc3cnc[nH]3)C(=O)N[C@@H](CCCNC(=N)N)C(N)=O)cccc12 [Dansyl-FHR-amide] (Dansyl-Phe-His-Arg-NH2)
9 a.u.	CSCC[C@H](NC(=O)[C@H](Cc1ccccc1)NS(=O)(=O)c1cccc2c(N(C)C)cccc12)C(=O)N[C@@H](CCCNC(=N)N)C(N)=O [Dansyl-FMR-amide] (Dansyl-Phe-Met-Arg-NH2)
11 a.u.	CN(C)c1cccc2c(S(=O)(=O)N[C@@H](Cc3ccccc3)C(=O)N[C@@H](CC(N)=O)C(=O)N[C@@H](CCCNC(=N)N)C(N)=O)cccc12 [Dansyl-FNR-amide] (Dansyl-Phe-Asn-Arg-NH2)
13 a.u.	CN(C)c1cccc2c(S(=O)(=O)N[C@@H](Cc3ccccc3)C(=O)N3CCC[C@H]3C(=O)N[C@@H](CCCNC(=N)N)C(N)=O)cccc12 [Dansyl-FPR-amide]
